# Patent US8389511B2, “Bicyclic heterocyclic derivative” (Dainippon Sumitomo Pharma Co., Ltd., priority 2007, dated 2013)
# Structures can show the parent of a compound that is named as a salt.
# Biological target: T1, Recombinant human renin (Homo sapiens, UniProt P00797)
# T1 sequence (P00797 67-406): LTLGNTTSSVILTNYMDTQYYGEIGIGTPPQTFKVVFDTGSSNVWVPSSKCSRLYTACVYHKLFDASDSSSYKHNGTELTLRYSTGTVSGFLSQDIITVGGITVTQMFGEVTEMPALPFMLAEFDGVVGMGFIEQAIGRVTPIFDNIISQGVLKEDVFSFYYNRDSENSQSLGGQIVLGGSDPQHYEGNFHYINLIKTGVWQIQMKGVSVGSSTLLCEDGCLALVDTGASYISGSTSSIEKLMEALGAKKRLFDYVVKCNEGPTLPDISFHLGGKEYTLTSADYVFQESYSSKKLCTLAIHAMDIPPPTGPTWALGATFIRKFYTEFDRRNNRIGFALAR
# Assay: In vitro renin inhibitory activity assay (fluorescence, EDANS/DABCYL peptide substrate)
# Assay type: biochemical
# Settings: recombinant human renin (50 ng), 0.1M HEPES buffer pH 7.4, substrate 4 μM, 37° C., one hour, fluorescence 340/500 nm
# Experimental: In Vitro Renin Inhibitory Activity Assay
# Recombinant human renin (50 ng) was reacted in 0.1M HEPES buffer (pH 7.4) containing 0.1M NaCl, 1 mM EDTA and 0.1 mg/mL BSA together with a substrate and a test compound at 37° C. for one hour. As the substrate, Arg-Glu(EDANS)-[…]DABCYL)-Arg or DABCYL-γ-Abu-[…]EDANS was added in such an amount so that the final concentration thereof became 4 μM. The elevated fluorescence intensity at the exciting wavelength 340 nm and the fluorescence wavelength 500 nm was measured by a fluorescence plate reader.
row,IC50 [nM],SMILES
1,0.8,COC(=O)NCCN1C(=O)[C@](C)(c2cc(F)cc(F)c2)Oc2cc(Cl)c(C(=O)N(C(C)C)[C@@H]3CCCNC3)cc21 [Example 30]
2,1.3,CCC(=O)NCCN1C(=O)C(C)(C)Oc2cc(C(F)(F)F)c(C(=O)N(C3CCC3)[C@@H]3CCCNC3)cc21 [Example 202]
3,0.7,"COCCCN1C(=O)C(C)(C)Oc2cc(Br)c(C(=O)N(C(C)C)[C@@H]3CCCNC3)cc21 [Example 1, 7-Bromo-N-isopropyl-4-(3-methoxypropyl)-2,2-dimethyl-3-oxo-N-[(3R)-piperidin-3-yl]-3,4-dihydro-2H-1,4-benzoxazine-6-carboxamide hydrochloride]"
4,0.3,CCC(=O)NCCN1C(=O)C(C)(c2cccc(OS(C)(=O)=O)c2)Oc2cc(C(F)(F)F)c(C(=O)N(C(C)C)C3CCCNC3)cc21 (centres unmarked) [Example 229]
5,8.4,COCCCCN1C(=O)C2(CCOCC2)Oc2cc(C)c(C(=O)N(C(C)C)[C@@H]3CCCNC3)cc21 [Example 48]
6,4.6,CCc1cc2c(cc1C(=O)N(C(C)C)[C@@H]1CCCNC1)N(CCNC(=O)OC)C(=O)C(C)(C)O2 [Example 80]
7,82,"COCCCCN1C(=O)C(C)(C)Oc2cc(C(F)(F)F)c(C(=O)N(C(C)C)C3CCNC3)cc21 (centres unmarked) [Example 201, N-Isopropyl-4-(4-methoxybutyl)-2,2-dimethyl-3-oxo-N-pyrrolidine-3-yl-7-(trifluoromethyl)-3,4-dihydro-2H-1,4-benzoxazine-6-carboxamide hydrochloride]"
8,20,"CCC(=O)NCCN1C(=O)C(C)(C)c2cc(Cl)c(C(=O)N(C(C)C)[C@@H]3CCCNC3)cc21 [Example 255, 5-Chloro-N-isopropyl-3,3-dimethyl-2-oxo-N-[(3R)-piperidin-3-yl]-1-[2-(propionylamino)ethyl]-indoline-6-carboxamide hydrochloride]"
9,0.6,CCC(=O)NCCN1C(=O)C(C)(c2cccc(C#N)c2)Oc2cc(C(F)(F)F)c(C(=O)N(C(C)C)C3CCCNC3)cc21 (centres unmarked) [Example 224]
10,1.2,COC(=O)NCCN1C(=O)C(C)(COc2cccc(OC)c2)Oc2cc(C(F)(F)F)c(C(=O)N(C(C)C)C3CCCNC3)cc21 (centres unmarked) [Example 210]
11,2.2,CCC(=O)NCCN1C(=O)C(C)(C)Oc2cc(C(F)(F)F)c(C(=O)N(CC)C3CNCCC3c3ccccc3)cc21 (centres unmarked) [Example 243]
12,1.1,CCOC(=O)COCC1(C)Oc2cc(C(F)(F)F)c(C(=O)N(C(C)C)C3CCCNC3)cc2N(CCCCOC)C1=O (centres unmarked) [Example 216]
13,14,"COCCCCN1C(=O)C(C)(C)c2cc(Cl)c(C(=O)N(C(C)C)[C@@H]3CCCNC3)cc21 [Example 254, 5-Chloro-3,3-dimethyl-N-isopropyl-1-(4-methoxybutyl)-2-oxo-N-[(3R)-piperidin-3-yl] indoline-6-carboxamide hydrochloride]"
14,19.2,CCc1cc2c(cc1C(=O)N(C(C)C)[C@@H]1CCCNC1)N(CCCCOC)C(=O)C(C)(C)O2 [Example 79]
15,30,CCC(=O)NCCn1c(=O)n(CC)c2cc(C(F)(F)F)c(C(=O)N(C(C)C)[C@@H]3CCCNC3)cc21 [Example 262]
16,1.5,CCC(=O)NCCN1C(=O)C(C)(c2cc(C#N)ccc2F)Oc2cc(C(F)(F)F)c(C(=O)N(C(C)C)C3CCCNC3)cc21 (centres unmarked) [Example 228]
17,1.5,COCC(=O)CCN1C(=O)C(C)(C)Oc2cc(C(F)(F)F)c(C(=O)N(C(C)C)C3CCCNC3)cc21 (centres unmarked) [Example 252]
18,2,COC(=O)NCCN1C(=O)C(C)(COc2ccccc2)Oc2cc(C(F)(F)F)c(C(=O)N(C(C)C)C3CCCNC3)cc21 (centres unmarked) [Example 209]
19,1.7,COCCCCN1C(=O)C(C)(COCCOC)Oc2cc(C(F)(F)F)c(C(=O)N(C(C)C)C3CCCNC3)cc21 (centres unmarked) [Example 212]
20,0.7,COCCCCN1C(=O)[C@@H](C)Oc2cc(C(F)(F)F)c(C(=O)N(C(C)C)[C@@H]3CCCNC3)cc21 [Example 66]
21,4,COCCCCN1C(=O)C(C)(C)Oc2cc(C#N)c(C(=O)N(C(C)C)[C@@H]3CCCNC3)cc21 [Example 162]
22,39,CCC(=O)NCCN1C(=O)C(C)(C)Oc2cc(C(F)(F)F)c(C(=O)N(C(C)C)C3CNCCC3c3cccc(-c4ccccc4)c3)cc21 (centres unmarked) [Example 238]
23,23.8,COCC(O)CCN1C(=O)C(C)(C)Oc2cc(C(F)(F)F)c(C(=O)N(C(C)C)C3CCCNC3)cc21 (centres unmarked) [Example 251]
24,1.8,COCCCCN1C(=O)C(C)(CO)Oc2cc(C(F)(F)F)c(C(=O)N(C(C)C)C3CCCNC3)cc21 (centres unmarked) [Example 217]
25,11,COCCCN1C(=O)[C@@H](C)Oc2cc(C)c(C(=O)N(C(C)C)[C@@H]3CCCNC3)cc21 [Example 18]
26,17.4,COCCCCN1C(=O)C(C2CCOCC2)Oc2cc(C(F)(F)F)c(C(=O)N(C(C)C)C3CCCNC3)cc21 (centres unmarked) [Example 205]
27,15,CCn1c(=O)n(CCCCOC)c2cc(C(=O)N(C(C)C)[C@@H]3CCCNC3)c(C(F)(F)F)cc21 [Example 261]
28,0.2,COC(=O)NCCN1C(=O)[C@](C)(c2cc(F)cc(F)c2)Oc2cc(Br)c(C(=O)N(C(C)C)[C@@H]3CCCNC3)cc21 [Example 36]
29,2.2,CCC(=O)NCCN1C(=O)C(C)(C)Oc2cc(F)c(C(=O)N(CC)[C@H]3CNCC[C@@H]3c3cccc(OC)c3)cc21 [Example 265]
